# Test system: S. aureus (ATCC 29213)
# Assay: MICs of compound having Formula IV and ciprofloxacin alone and in combination
# Format: cell-based
# Settings: against S. aureus; alone
# Procedure: Compositions having various combinations of concentrations of compound having Formula IV and cirprofloxacin were tested systematically against S. aureus, P. aeruginosa, and E. coli.
smiles,measurement,value
"O=C(O)c1cn(C2CC2)c2cc(N3CCNCC3)c(F)cc2c1=O [Ciprofloxacin, ciprofloxacin]",effectiveness in words,effective

# Source: patent US8173640B1, “Compositions and methods for treating, reducing, ameliorating, or preventing infections” (Bausch & Lomb Incorporated, priority 2007, dated 2012)
